Test system: mice submitted to DSS-induced colitis
Test: DSS-induced colitis model in mice
Type: in vivo, mouse (C57BL/6JRj)
Settings: for protection against DSS-induced colitis (body weight loss, DAI, colon length, histological score): FIG. 2, oral administration, n=16-20 mice per group; for protection from colitis: intraperitoneal injection, FIG. 3, n=10 mice per group; for colonic expression of pro-inflammatory cytokines such as IL-1 or IL-17: oral treatment, measured by Nanostring technology, data not shown; for colon length / histological score: day twelve
Protocol: C57BL/6JRj from Janvier lab, 7 weeks old, were housed in our specific pathogen free animal facility at IERP (INRA, Jouy en Josas, France). Five to ten female mice per group were used in all experiment, were maintained in a temperature controlled (23° C.) facility with a strict 12 h light/dark cycles and were given free access to food and water. After one acclimation week, we changed water with DSS 2% (MP Biomedical) during 7 days (day 0 to day 7), and a
recovery period was practiced until day 12 (during 5 days). Body weight loss and DAI (disease activity index) were performed daily. After 12 days the samples were harvested.
Colon distal part (cut in three parts) was harvested at day 12 after DSS model and put directly in PFA (Rothi®—Histofix 4%) during 48 h and transferred in ethanol 70% until the standard pre-fixation automat and paraffin embedded. HES coloration was practiced on 5Im cut.
Data were analyzed using Prism version 7 (Graphpad Software, San Diego, USA). The non-parametric Mann Withney test or the parametric one-way ANOVA tests with multiple Bonferroni's comparison tests were performed. Values are expressed as mean±SEM. Statistical significance was defined at a p-value ****<0.0001, ***<0.001, **<0.01, *<0.05.

[1] = oral, each day, 8 mg of KYNA / 6 mg of XANA per mouse
[2] = oral, each day, 8 mg of KYNA / 6 mg of XANA per mouse, measured daily, DSS 2%

Structure (SMILES) | protection against DSS-induced colitis (body weight loss, DAI, colon length, histological score) | protection from colitis | colonic expression of pro-inflammatory cytokines such as IL-1 or IL-17 | colon length [1] | histological score [1] | activity index of colitis (DAI) [2] | weight loss [2]
O=C(O)c1cc(=O)c2ccccc2[nH]1 [KYNA, kynurenic acid, reference compound] | protect against DSS-induced colitis | induces protection similar to that observed when these metabolites are given orally | reduced | longer | lower | anti-inflammatory effect | anti-inflammatory effect
O=C(O)c1cc(O)c2cccc(O)c2n1 [XANA, xanthurenic acid] | protect against DSS-induced colitis | induces protection similar to that observed when these metabolites are given orally | reduced | longer | lower | – | anti-inflammatory effect

Reference: US20240408183A1, “KYNURENINE AMINOTRANSFERASE AND PRODUCTS THEREOF FOR THE TREATMENT OF INFLAMMATORY BOWEL DISEASES” (Institut National De Recherche Pour L'Agriculture, …, priority 2021, published 2024)
